Where two headings read alike, the source gives them in different places. Each block holds one molecule with its values, some of them ahead of it.
What was measured:
[1] = tested on: K562-tax (human myeloid leukaemia resistant to taxol); assay: MTT cytotoxic test, K562-tax; assay type: cell-based; settings: K562-TAX cells, mean (x), read-out: Cytotoxic and antiproliferation activity MTT test (IC50, μM) K562-TAX x
From the text: (§1) In order to evaluate antitumour activity of the new prepared substances in vitro, we used the MTT cytotoxic test on cell lines derived from normal tissues and tumours. In particular, they included the NIH 3T3 (mouse fibroblasts), K562 (human myeloid leukaemia), K562-tax (human myeloid leukaemia resistant to taxol and the overexpressing protein of the PgP multiple drug resistance), CEM (T-lymphoblastic leukaemia), CEM-DNR-bulk (T-lymphoblastic leukaemia resistant to doxorubicine, lacking the expression of target gene for inhibitors of topoisomerase II alpha) and the line A549 (human lung adenocarcinoma).

[2] = tested on: CEM (T-lymphoblastic leukaemia); assay: MTT cytotoxic test, CEM; assay type: cell-based; settings: CEM cells, mean (x), read-out: Cytotoxic and antiproliferation activity MTT test (IC50, μM) CEM x
From the text: as §1

[3] = tested on: CEM-DNR-bulk (T-lymphoblastic leukaemia resistant to doxorubicine); assay: MTT cytotoxic test, CEM-DNR-bulk; assay type: cell-based; settings: CEM-DNR-BULK cells, mean (x); read-out: Cytotoxic and antiproliferation activity MTT test (IC50, μM) CEM-DNR-BULK x
From the text: as §1

[4] = tested on: A549 (human lung adenocarcinoma); assay: MTT cytotoxic test, A549; assay type: cell-based; settings: A 549 cells, mean (x), read-out: Cytotoxic and antiproliferation activity MTT test (IC50, μM) A 549 x
From the text: as §1

[5] = tested on: K562 (human myeloid leukaemia); assay: MTT cytotoxic test, K562; assay type: cell-based; settings: K 562 cells, mean (x), read-out: Cytotoxic and antiproliferation activity MTT test (IC50, μM) K 562 x
From the text: as §1

[6] = tested on: concavaline A-stimulated human lymphocytes; assay: MTT test, inhibition of lymphocyte activation with ConA; assay type: cell-based; settings: 5 μg/ml, mean (x)
From the text: The proliferation response of isolated lymphocytes to polyclonal mitogens belongs to the most important parameters of specific cell immunity. Most of the human lymphocytes occur in quiet state. Antigens or polyclonal mitogens, however, are capable of activating lymphatic cells, which is accompanied by dramatic changes of their cell metabolism (enhanced mitochondrial activity, protein and nucleic acid synthesis, formation of blastic cells and proliferations). Substances having the capability to suppress such processes show immunosuppressive activity in clinical conditions and, therefore, these tests can be used for screening tests of immunosuppressive activity in vitro. On this account, we use the above-mentioned MTT test, which evaluates both the survival and the proliferation activity of quiet vs. polyclonal-mitogen (concavaline A, 5 μg/ml)-stimulated human lymphocytes to screen the immunosuppressive activity of new substances (Jegorov et al., J. Mass. Spetrom., 2006).

Structure (SMILES): CCN(CC)CCn1cnc2cc(-c3[nH]c4ccccc4c(=O)c3O)ccc21 [—(CH2)2N(C2H5)2]
IC50 [1]: 6.5 µM
IC50 [2]: 5.2 µM
IC50 [3]: 71.2 µM
IC50 [4]: 3.5 µM
IC50 [5]: 2.1 µM

Structure (SMILES): O=c1c(O)c(-c2ccc(N(CCO)CCO)c([N+](=O)[O-])c2)[nH]c2ccccc12 [—N(CH2CH2OH)2]
IC50 [1]: 198 µM
IC50 [2]: 0.3 µM
IC50 [3]: 143 µM
IC50 [4]: 224 µM
IC50 [6]: 0.9 µM
IC50 [5]: 187 µM

Structure (SMILES): O=CNCCn1cnc2cc(-c3[nH]c4ccccc4c(=O)c3O)ccc21 [—CH2CH2NHCHO]
IC50 [6]: 1.1 µM

Structure (SMILES): O=c1c(O)c(-c2ccc(NCCCCCO)c([N+](=O)[O-])c2)[nH]c2ccccc12 [—NH(CH2)5OH]
IC50 [1]: 5.7 µM
IC50 [2]: 1 µM
IC50 [3]: 10.8 µM
IC50 [4]: 5.3 µM
IC50 [6]: 0.6 µM
IC50 [5]: 2.8 µM

Structure (SMILES): O=c1c(O)c(-c2ccc3c(c2)ncn3CCSCCO)[nH]c2ccccc12 [—(CH2)2S(CH2)2OH]
IC50 [1]: 4.5 µM
IC50 [2]: 0.8 µM
IC50 [3]: 2.2 µM
IC50 [4]: 3.6 µM
IC50 [5]: 3.1 µM

Structure (SMILES): CC(C)Nc1ccc(-c2[nH]c3ccccc3c(=O)c2O)cc1[N+](=O)[O-] [—NHCH(CH3)2]
IC50 [1]: 3 µM
IC50 [2]: 1.6 µM
IC50 [3]: 6.8 µM
IC50 [4]: 2.8 µM
IC50 [6]: 4.8 µM
IC50 [5]: 2.1 µM

melting point: 218 to 221 °C
Structure (SMILES): O=c1c(O)c(-c2ccc(N3CCN(CCO)CC3)c([N+](=O)[O-])c2)[nH]c2ccccc12

melting point: 282 to 285 °C
Structure (SMILES): CCNc1ccc(-c2[nH]c3ccccc3c(=O)c2O)cc1[N+](=O)[O-] [Example 6, 2-[4-(Ethylamino)-3-nitrophenyl]-3-hydroxyquinoline-4(1H)-one]

Structure (SMILES): C/C=C/CCSc1ccc(-c2[nH]c3ccccc3c(=O)c2O)cc1[N+](=O)[O-]
IC50 [1]: 5.2 µM
IC50 [2]: 2.1 µM
IC50 [3]: 3.2 µM
IC50 [4]: 4.3 µM
IC50 [5]: 9.3 µM

Structure (SMILES): CCCN(CCC)c1ccc(-c2[nH]c3ccccc3c(=O)c2O)cc1[N+](=O)[O-] [—N(CH2CH2CH3)2]
IC50 [1]: 1.2 µM
IC50 [2]: 0.7 µM
IC50 [3]: 2.2 µM
IC50 [4]: 1.1 µM
IC50 [6]: 0.9 µM
IC50 [5]: 0.6 µM

Structure (SMILES): O=c1c(O)c(-c2ccc(NCCCCO)c([N+](=O)[O-])c2)[nH]c2ccccc12 [—NH(CH2)4OH]
IC50 [1]: 8.6 µM
IC50 [2]: 0.7 µM
IC50 [3]: 15.1 µM
IC50 [4]: 5.7 µM
IC50 [6]: 1.1 µM
IC50 [5]: 1.8 µM

Structure (SMILES): CCN(C)c1ccc(-c2[nH]c3ccccc3c(=O)c2O)cc1[N+](=O)[O-] [—N(CH3)(CH2CH3)]
IC50 [1]: 163 µM
IC50 [2]: 1.7 µM
IC50 [3]: 129 µM
IC50 [4]: 66.5 µM
IC50 [6]: 5.7 µM
IC50 [5]: 0.7 µM

Structure (SMILES): O=c1c(O)c(-c2ccc3c(c2)ncn3CC(F)(F)F)[nH]c2ccccc12
IC50 [6]: 4.2 µM

Structure (SMILES): CCCCCCn1cnc2cc(-c3[nH]c4ccccc4c(=O)c3O)ccc21 [—(CH2)5CH3]
IC50 [1]: 35 µM
IC50 [2]: 2.8 µM
IC50 [3]: 54 µM
IC50 [4]: 44.3 µM
IC50 [5]: 8.5 µM

melting point: 322 to 324 °C
Structure (SMILES): O=c1c(O)c(-c2ccc(Sc3ccccc3)c([N+](=O)[O-])c2)[nH]c2ccccc12 [Example 7, 3-Hydroxy-2-[3-nitro-4-(phenylthio)phenyl]quinoline-4(1H)-one]

Structure (SMILES): O=c1c(O)c(-c2ccc(Cl)c([N+](=O)[O-])c2)[nH]c2ccccc12 [Cl, 2-(4-Chlorine-3-nitrophenyl)-3-hydroxyquinoline-4(1H)-one]
IC50 [1]: 3.2 µM
IC50 [2]: 2.6 µM
IC50 [3]: 3.5 µM
IC50 [4]: 4.2 µM
IC50 [5]: 2.3 µM

melting point: 278 to 280 °C
Structure (SMILES): O=c1c(O)c(-c2ccc(-n3ccnc3)c([N+](=O)[O-])c2)[nH]c2ccccc12 [Example 8, 3-Hydroxy-2-[4-(1H-imidazole-1-yl)-3-nitrophenyl]quinoline-4(1H)-one]

Structure (SMILES): O=c1c(O)c(-c2ccc(NCCO)c([N+](=O)[O-])c2)[nH]c2ccccc12 [—NH(CH2)2OH]
IC50 [1]: 44.9 µM
IC50 [2]: 2.7 µM
IC50 [3]: 98.8 µM
IC50 [4]: 46.8 µM
IC50 [6]: 3.8 µM
IC50 [5]: 7.3 µM

Structure (SMILES): O=c1c(O)c(-c2ccc(F)c([N+](=O)[O-])c2)[nH]c2ccccc12 [F]
IC50 [6]: 3.8 µM

melting point: 233 to 236 °C
Structure (SMILES): O=c1c(O)c(-c2ccc(NCCCO)c([N+](=O)[O-])c2)[nH]c2ccccc12 [—NH(CH2)3OH, 3-Hydroxy-2-{4-[(3-hydroxypropyl)amino]-3-nitrophenyl}quinoline-4(1H)-one]
IC50 ([1]; Homo sapiens): 12.9 µM
IC50 ([2]; Homo sapiens, CCRF-CEM): 1.4 µM
IC50 [3]: 46.3 µM
IC50 ([4]; Homo sapiens, A549): 12.4 µM
IC50 ([6]; Lymphocyte): 0.8 µM
IC50 ([5]; Homo sapiens, K562): 6.2 µM

melting point: 203 to 204 °C
Structure (SMILES): O=c1c(O)c(-c2ccc(N3CCN(CCOCCO)CC3)c([N+](=O)[O-])c2)[nH]c2ccccc12 [Example 5, 3-Hydroxy-2-(4-{4-[2-(2-hydroxyethoxy)ethyl]piperazine-1-yl}-3-nitrophenyl)quinoline-4(1H)-one]

Source: patent publication US8299092B2, “Derivatives of 2-phenyl-3-hydroxyquinoline-4(1H)-one and methods of their preparation and utilization” (Univerzita Palackeho, priority 2006, dated 2012)
